Source: US20150105252A1, “SUBSTITUTED PYRAZOLES AS HERBICIDES” (E I DU PONT DE NEMOURS AND COMPANY, priority 2013, published 2015)

Assays:
barnyardgrass [1] = assay: Test C preemergence; assay type: in vivo, Echinochloa crus-galli; conditions: for Plant response rating (scale of 0 to 100), Barnyardgrass: Preemergence; for Barnyardgrass plant response rating / Plant response rating, Barnyardgrass: preemergence; for Plant response rating, Barnyardgrass: scale 0 to 100, 0 = no effect, 100 = complete control
Outline: (§1)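 Postemergence values come from plants sprayed at the 1- to 4-leaf stage (2–18 cm) in peat moss–vermiculite medium; preemergence values from seeds treated in a loam–sand blend. Both evaluated visually against controls after 13–15 greenhouse days, scale 0–100.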

foxtail, giant [2] = assay: Test A preemergence; assay type: in vivo, Setaria faberii; conditions: preemergence
Outline: (§2)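 Scoring was visual, on a scale where 100 means complete control and 0 means no effect, comparing treated with untreated plants around 10 days post-application. Compounds in surfactant-containing non-phytotoxic solvent were sprayed onto soil preemergence or onto one- to two-leaf seedlings (2–10 cm) postemergence.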

foxtail, giant [3] = assay: Test A postemergence; assay type: in vivo, Setaria faberii
Outline: as §2

rice = assay: Test B flood; assay type: in vivo, Oryza sativa; conditions: 250 g ai/ha, visual rating on 0 to 100 scale (0 no effect, 100 complete control), 13 to 15 days
Outline: (§3)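 Paddy-water application: seedlings at 2-leaf stage, flood depth 3 cm maintained for the test duration. Evaluation after 13–15 days in the greenhouse by eye relative to controls; 0–100 scale.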

barnyardgrass [4] = assay: Test A postemergence; assay type: in vivo, Echinochloa crus-galli
Outline: as §2

barnyardgrass [5] = assay: Test B flood; assay type: in vivo, Echinochloa crus-galli; conditions: 250 g ai/ha, visual rating on 0 to 100 scale (0 no effect, 100 complete control), 13 to 15 days
Outline: as §3

morningglory = assay: Test C preemergence; assay type: in vivo, Ipomoea coccinea; conditions: for Plant response rating (scale of 0 to 100), Morningglory: Preemergence; for Morningglory plant response rating / Plant response rating, Morningglory: preemergence; for Plant response rating, Morningglory: scale 0 to 100, 0 = no effect, 100 = complete control
Outline: as §1

galium = assay: Test C postemergence; assay type: in vivo, Galium aparine; conditions: for Plant response rating (scale of 0 to 100 where 0 is no effect and 100 is complete control), Galium: Postemergence, 31 g ai/ha, visually evaluated after 13 to 15 days; for Galium plant response rating / Plant response rating, Galium: postemergence; for Galium plant response rating: 62 g ai/ha, scale 0 to 100
Outline: as §1

crabgrass, large = assay: Test C postemergence; assay type: in vivo, Digitaria sanguinalis; conditions: for Plant response rating (scale of 0 to 100 where 0 is no effect and 100 is complete control), Crabgrass, Large: Postemergence, 31 g ai/ha, visually evaluated after 13 to 15 days; for Crabgrass, Large plant response rating / Plant response rating, Crabgrass, Large: postemergence; for Crabgrass, Large plant response rating: 62 g ai/ha, scale 0 to 100
Outline: as §1

nutsedge, yellow = assay: Test C postemergence; assay type: in vivo, Cyperus esculentus; conditions: for Plant response rating (scale of 0 to 100 where 0 is no effect and 100 is complete control), Nutsedge, Yellow: Postemergence, 31 g ai/ha, visually evaluated after 13 to 15 days; for Nutsedge, Yellow plant response rating / Plant response rating, Nutsedge, Yellow: postemergence; for Nutsedge, Yellow plant response rating: 62 g ai/ha, scale 0 to 100
Outline: as §1

pigweed = assay: Test C preemergence; assay type: in vivo, Amaranthus retroflexus; conditions: for Plant response rating (scale of 0 to 100), Pigweed: Preemergence; for Pigweed plant response rating / Plant response rating, Pigweed: preemergence; for Plant response rating, Pigweed: scale 0 to 100, 0 = no effect, 100 = complete control
Outline: as §1

[6] = 31 g ai/ha, scale 0 to 100 (0 no effect, 100 complete control), 13 to 15 days
[7] = 62 g ai/ha, scale 0 to 100 (0 no effect, 100 complete control), 13 to 15 days
[8] = 125 g ai/ha, visual injury, 0 to 100 scale, approx. 10 days
[9] = 500 g ai/ha, visual injury after approx. 10 days, 0 to 100 scale (0 no effect, 100 complete control)
[10] = Postemergence, 500 g ai/ha, 0 to 100 scale (0 no effect, 100 complete control)
[11] = postemergence, 125 g ai/ha, about 10 days, visual rating on 0 to 100 scale (0 no effect, 100 complete control)
[12] = 31 g ai/ha, visual rating, scale 0 to 100 (0 no effect, 100 complete control), 13 to 15 days
[13] = 250 g ai/ha, scale 0 to 100 (0 no effect, 100 complete control)
[14] = 125 g ai/ha, scale 0 to 100, 0 no effect, 100 complete control
[15] = 250 g ai/ha, scale 0 to 100, 0 is no effect, 100 is complete control
[16] = 125 g ai/ha, scale 0 to 100, 0 is no effect, 100 is complete control

Compound | Barnyardgrass plant response rating (barnyardgrass [1]; [7]) | Foxtail, Giant plant response rating (foxtail, giant [2]; [9]) | Foxtail, Giant plant response rating (foxtail, giant [3]; [10]) | Foxtail, Giant plant response rating (foxtail, giant [3]; [11]) | Plant response rating, Rice (rice) | Barnyardgrass plant response rating (barnyardgrass [4]; [10]) | Barnyardgrass plant response rating (barnyardgrass [4]; [11]) | Plant response rating, Barnyardgrass (barnyardgrass [5]) | Morningglory plant response rating (morningglory; [12]) | Morningglory plant response rating (morningglory; [7]) | Plant response rating (scale of 0 to 100 where 0 is no effect and 100 is complete control), Galium (galium) | Galium plant response rating (galium) | Plant response rating, Galium (galium; [13]) | Plant response rating, Galium (galium; [14]) | Plant response rating (scale of 0 to 100 where 0 is no effect and 100 is complete control), Crabgrass, Large (crabgrass, large) | Crabgrass, Large plant response rating (crabgrass, large) | Plant response rating, Crabgrass, Large (crabgrass, large; [13]) | Plant response rating, Crabgrass, Large (crabgrass, large; [14]) | Plant response rating (scale of 0 to 100 where 0 is no effect and 100 is complete control), Nutsedge, Yellow (nutsedge, yellow) | Nutsedge, Yellow plant response rating (nutsedge, yellow) | also measured
CCOc1cc(C(=O)NCC(F)(F)F)nn1Cc1ccnc(OC(F)F)c1 [Compound 128] | 90 | 100 | 100 | 100 | 30 | 100 | 100 | 70 | 75 | 70 | 60 | 65 | 70 | 80 | 5 | 5 | 85 | 30 | 5 | 5 | Plant response rating (scale of 0 to 100), Barnyardgrass (barnyardgrass [1]; 250 g ai/ha): 100; Barnyardgrass plant response rating (barnyardgrass [1]; [6]): 80; Plant response rating, Barnyardgrass (barnyardgrass [1]; 125 g ai/ha, 13 to 15 days): 98; Foxtail, Giant plant response rating (foxtail, giant [2]; [8]): 100; Plant response rating (scale of 0 to 100), Morningglory (morningglory; 250 g ai/ha): 100; Plant response rating, Morningglory (morningglory; 125 g ai/ha, 13 to 15 days): 98; Plant response rating, Nutsedge, Yellow (nutsedge, yellow; [13]): 25; Plant response rating, Nutsedge, Yellow (nutsedge, yellow; [14]): 10; Plant response rating (scale of 0 to 100), Pigweed (pigweed; 250 g ai/ha): 100; Pigweed plant response rating (pigweed; [12]): 100; Pigweed plant response rating (pigweed; [7]): 100; Plant response rating, Pigweed (pigweed; 125 g ai/ha, 13 to 15 days): 100
CCCc1cc(C(=O)NC2CC2)nn1Cc1ccnc(OC(F)F)c1 [Compound 205] | 98 | 100 | 90 | 90 | 0 | 90 | 80 | 50 | 100 | 100 | 65 | 80 | 80 | 80 | 5 | 10 | 65 | 45 | 5 | 5 | Barnyardgrass plant response rating (barnyardgrass [1]; [12]): 85; Plant response rating, Barnyardgrass (barnyardgrass [1]; 125 g ai/ha, 13 to 15 days): 100; Barnyardgrass plant response rating (barnyardgrass [1]; [15]): 100; Foxtail, Giant plant response rating (0 to 100 scale) (foxtail, giant [2]; 125 g ai/ha, visual injury approx. 10 days after treatment): 100; Plant response rating, Morningglory (morningglory; 125 g ai/ha, 13 to 15 days): 100; Morningglory plant response rating (morningglory; [15]): 100; Plant response rating, Nutsedge, Yellow (nutsedge, yellow; [13]): 15; Plant response rating, Nutsedge, Yellow (nutsedge, yellow; [14]): 15; Pigweed plant response rating (pigweed; [12]): 95; Pigweed plant response rating (pigweed; [7]): 100; Plant response rating, Pigweed (pigweed; 125 g ai/ha, 13 to 15 days): 100; Pigweed plant response rating (pigweed; [15]): 100
CCc1cc(C(=O)NOC(C)C)nn1Cc1ccnc(OC(F)F)c1 [Compound 126] | 100 | 100 | 90 | 90 | 20 | 100 | 90 | 40 | 55 | 70 | 50 | 50 | 70 | 55 | 5 | 10 | 60 | 15 | 5 | 5 | Plant response rating (scale of 0 to 100), Barnyardgrass (barnyardgrass [1]; 250 g ai/ha): 100; Barnyardgrass plant response rating (barnyardgrass [1]; [6]): 75; Barnyardgrass plant response rating (barnyardgrass [1]; [16]): 100; Foxtail, Giant plant response rating (foxtail, giant [2]; [8]): 100; Plant response rating (scale of 0 to 100), Morningglory (morningglory; 250 g ai/ha): 100; Morningglory plant response rating (morningglory; [16]): 98; Plant response rating, Nutsedge, Yellow (nutsedge, yellow; [13]): 15; Plant response rating, Nutsedge, Yellow (nutsedge, yellow; [14]): 5; Plant response rating (scale of 0 to 100), Pigweed (pigweed; 250 g ai/ha): 100; Pigweed plant response rating (pigweed; [12]): 100; Pigweed plant response rating (pigweed; [7]): 85; Pigweed plant response rating (pigweed; [16]): 100
CCCNC(=O)c1cc(OCC)n(Cc2ccnc(OC(F)F)c2)n1 [Compound 136] | 100 | 100 | 100 | 90 | 35 | 90 | 70 | 50 | 100 | 100 | 60 | 60 | 80 | 60 | 5 | 5 | 40 | 40 | 5 | 5 | Barnyardgrass plant response rating (barnyardgrass [1]; [6]): 75; Plant response rating, Barnyardgrass (barnyardgrass [1]; 125 g ai/ha, 13 to 15 days): 100; Barnyardgrass plant response rating (barnyardgrass [1]; [15]): 100; Foxtail, Giant plant response rating (foxtail, giant [2]; [8]): 100; Plant response rating, Morningglory (morningglory; 125 g ai/ha, 13 to 15 days): 100; Morningglory plant response rating (morningglory; [15]): 100; Plant response rating, Nutsedge, Yellow (nutsedge, yellow; [13]): 5; Plant response rating, Nutsedge, Yellow (nutsedge, yellow; [14]): 5; Pigweed plant response rating (pigweed; [12]): 70; Pigweed plant response rating (pigweed; [7]): 70; Plant response rating, Pigweed (pigweed; 125 g ai/ha, 13 to 15 days): 60; Pigweed plant response rating (pigweed; [15]): 100
